Laboratory results reported in patent US20230233569A1 (Revolution Medicines, Inc., priority 2020, published 2023).
pEC50, pIC50: −log10 of the molar value.

Experiments:
[1] = tested on: P70S6K (Thr389) phosphorylation (mTORC1) in MDA-MB-468 cells; assay: Cell based AlphaLISA assay, mTOR kinase cellular assay: inhibition of p-P70S6K (T389) in MDA-MB-468 cells; conditions: Homo sapiens, read-out: pIC50 for Inhibition of mTORC1 and mTORC2 Substarte Phosphorylation p-P70S6K-(T389) (converted)
Description: (§1) Cell Based AlphaLISA Assays for Determining IC50 For Inhibition of P-Akt (S473), P-4E-BP1 (T37/46), and P-P70S6K (T389) in MDA-MB-468 Cells
(§2) mTOR Kinase Cellular Assay
(§3) To measure functional activity of mTORC1 and mTORC2 in cells the phosphorylation of 4EBP1 (Thr37/46) and P70S6K (Thr389), and AKT1/2/3 (Ser473) was monitored using AlphaLisa SureFire Ultra Kits (Perkin Elmer). MDA-MB-468 cells (ATCC® HTB-132) were cultured in 96-well tissue culture plates and treated with compounds in the disclosure at concentrations varying from 0.017-1,000 nM for two to four hours at 37° C. Incubations were terminated by removal of the assay buffer and addition of lysis buffer provided with the assay kit. Samples were processed according to the manufacturer's instructions. The Alpha signal from the respective phosphoproteins was measured in duplicate using a microplate reader (Envision, Perkin-Elmer or Spectramax M5, Molecular Devices). Inhibitor concentration response curves were analyzed using normalized IC50 regression curve fitting with control based normalization.

[2] = tested on: AKT1/2/3 (Ser473) phosphorylation (mTORC2) in MDA-MB-468 cells; assay: Cell based AlphaLISA assay, mTOR kinase cellular assay: inhibition of p-Akt (S473) in MDA-MB-468 cells; conditions: Homo sapiens, read-out: pIC50 for Inhibition of mTORC1 and mTORC2 Substarte Phosphorylation p-AKT1/2/3-(S473) (converted)
How it was run: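 MDA-MB-468 cells treated with compound at 0.017-1,000 nM for two to four hours at 37° C, then lysed. Phospho-AKT1/2/3 S473, 4EBP1 T37/46 and P70S6K T389 quantified by AlphaLISA SureFire Ultra in duplicate; IC50 from normalized regression with control-based normalization.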

[3] = tested on: 4EBP1 (Thr37/46) phosphorylation (mTORC1) in MDA-MB-468 cells; assay: Cell based AlphaLISA assay, mTOR kinase cellular assay: inhibition of p-4E-BP1 (T37/46) in MDA-MB-468 cells; conditions: Homo sapiens, read-out: pIC50 for Inhibition of mTORC1 and mTORC2 Substarte Phosphorylation p-4E-BP1-(T37/46) (converted)
Description: as §1, §2, §3

[4] = tested on: AsPC-1 (K-Ras G12D); assay: CellTiter-Glo cell viability assay; assay type: cell-based; conditions: Homo sapiens, ASPC1, 120 h, read-out: AsPC-1 Cell Viability assay data IC50, K-Ras G12D, 5-day treatment
How it was run: (§4)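 Viability is scored by CellTiter-Glo luminescence on day 5 of compound treatment, relative to vehicle (DMSO) wells set as 100%, with a four-parameter logistic fit.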

[5] = tested on: NCI-H358 (K-Ras G12C); assay: CellTiter-Glo cell viability assay; assay type: cell-based; conditions: Homo sapiens, NCI-H358, 120 h, read-out: H358 Cell Viability assay data IC50, K-Ras G12C, 5-day treatment
How it was run: as §4

[6] = tested on: AsPC-1 (K-Ras G12D); assay: Potency assay: pERK; assay type: cell-based; conditions: Homo sapiens, ASPC1, read-out: pERK EC50
[7] = target: KRAS G12C (Homo sapiens, UniProt P01116+P62937, G12C); assay: Ras-Raf disruption / FRET / MOA assay (BRAF RBD); assay type: biochemical; conditions: KRAS G12C FRET data IC50, Ras-Raf disruption, with Cyclophilin A
Chain of KRAS G12C (P01116 1-169 isoform P01116-2 G12C limits assumed): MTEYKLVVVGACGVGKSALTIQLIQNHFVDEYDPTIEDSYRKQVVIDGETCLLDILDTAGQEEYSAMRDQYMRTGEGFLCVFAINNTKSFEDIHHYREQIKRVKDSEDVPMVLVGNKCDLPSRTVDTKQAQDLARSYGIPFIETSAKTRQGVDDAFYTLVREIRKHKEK
Chain of KRAS G12C (P62937 whole entry): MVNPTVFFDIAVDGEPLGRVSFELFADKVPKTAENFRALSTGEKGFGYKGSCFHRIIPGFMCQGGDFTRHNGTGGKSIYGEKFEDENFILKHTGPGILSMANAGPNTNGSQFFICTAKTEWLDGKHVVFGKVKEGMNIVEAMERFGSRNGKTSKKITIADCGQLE
How it was run: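 His6-K-Ras G12C-GMPPNP (12.5 nM), GST-BRAF RBD (50 nM) and tagless Cyclophilin A (25 μM) incubated 3 h at 25 °C with compound (10-point 3-fold series from 30 μM), pH 7.3 HEPES buffer. Anti-His Eu/anti-GST APC added for 1.5 h; decreased TR-FRET ratio vs DMSO gives IC50.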

[8] = target: NRAS Q61R (Homo sapiens, UniProt P01111+P62937, Q61R); assay: Ras-Raf disruption / FRET / MOA assay (BRAF RBD); assay type: biochemical
Chain of NRAS Q61R (P01111 whole entry Q61R): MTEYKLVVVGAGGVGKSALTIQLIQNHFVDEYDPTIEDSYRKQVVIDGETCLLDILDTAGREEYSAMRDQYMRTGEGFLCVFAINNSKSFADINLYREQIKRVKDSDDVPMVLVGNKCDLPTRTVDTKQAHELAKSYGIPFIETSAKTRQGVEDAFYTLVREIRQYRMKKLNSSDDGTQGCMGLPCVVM
Chain of NRAS Q61R (P62937 whole entry): as the sequence (P62937 whole entry) above
How it was run: (§5)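 TR-FRET in 25 mM HEPES pH 7.3, 100 mM NaCl, 5 mM MgCl2, 0.1% BSA, 0.002% Tween20 with 25 μM Cyclophilin A, 12.5 nM His6-Ras-GMPPNP, 50 nM GST-BRAF RBD; compound 10-point 3-fold series from 30 μM. After 3 h at 25 °C, Eu anti-His/APC anti-GST added for 1.5 h; IC50 from ratio decrease versus DMSO.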

[9] = target: KRAS Q61H (Homo sapiens, UniProt P01116+P62937, Q61H); assay: Ras-Raf disruption / FRET / MOA assay (BRAF RBD); assay type: biochemical
Chain of KRAS Q61H (P01116 1-169 isoform P01116-2 Q61H limits assumed): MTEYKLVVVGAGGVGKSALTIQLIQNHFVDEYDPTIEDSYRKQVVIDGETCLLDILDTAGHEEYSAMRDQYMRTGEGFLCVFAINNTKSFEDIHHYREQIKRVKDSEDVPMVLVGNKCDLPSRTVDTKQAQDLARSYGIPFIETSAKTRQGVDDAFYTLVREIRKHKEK
Chain of KRAS Q61H (P62937 whole entry): as the sequence (P62937 whole entry) above
How it was run: as §5

[10] = target: KRAS G12V (Homo sapiens, UniProt P01116+P62937, G12V); assay: Ras-Raf disruption / FRET / MOA assay (BRAF RBD); assay type: biochemical; conditions: KRAS G12V FRET data IC50, Ras-Raf disruption, with Cyclophilin A
Chain of KRAS G12V (P01116 1-169 isoform P01116-2 G12V limits assumed): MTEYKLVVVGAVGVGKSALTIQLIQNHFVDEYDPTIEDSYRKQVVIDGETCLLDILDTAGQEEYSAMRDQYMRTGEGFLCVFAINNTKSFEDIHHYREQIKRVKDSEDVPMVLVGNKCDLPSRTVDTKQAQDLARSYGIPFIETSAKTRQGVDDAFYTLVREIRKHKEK
Chain of KRAS G12V (P62937 whole entry): as the sequence (P62937 whole entry) above
How it was run: as §5

[11] = target: KRAS G13C (Homo sapiens, UniProt P01116+P62937, G13C); assay: Ras-Raf disruption / FRET / MOA assay (BRAF RBD); assay type: biochemical; conditions: KRAS G13C FRET data IC50, Ras-Raf disruption, with Cyclophilin A
Chain of KRAS G13C (P01116 1-169 isoform P01116-2 G13C limits assumed): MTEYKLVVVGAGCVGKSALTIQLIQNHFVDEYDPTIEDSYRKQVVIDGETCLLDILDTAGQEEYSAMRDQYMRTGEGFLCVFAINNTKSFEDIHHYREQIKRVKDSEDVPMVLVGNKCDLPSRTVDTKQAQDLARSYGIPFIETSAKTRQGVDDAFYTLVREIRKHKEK
Chain of KRAS G13C (P62937 whole entry): as the sequence (P62937 whole entry) above
How it was run: as §5

[12] = target: KRAS G12D (Homo sapiens, UniProt P01116+P62937, G12D); assay: Ras-Raf disruption / FRET / MOA assay (BRAF RBD); assay type: biochemical; conditions: KRAS G12D FRET data IC50, Ras-Raf disruption, with Cyclophilin A
Chain of KRAS G12D (P01116 1-169 isoform P01116-2 G12D limits assumed): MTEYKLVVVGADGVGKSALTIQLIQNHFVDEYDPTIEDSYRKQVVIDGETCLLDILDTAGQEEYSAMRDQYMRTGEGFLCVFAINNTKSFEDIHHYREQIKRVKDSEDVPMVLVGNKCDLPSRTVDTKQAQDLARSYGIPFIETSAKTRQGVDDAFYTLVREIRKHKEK
Chain of KRAS G12D (P62937 whole entry): as the sequence (P62937 whole entry) above
How it was run: as §5

[13] = target: KRAS WT (Homo sapiens, UniProt P01116+P62937); assay: Ras-Raf disruption / FRET / MOA assay (BRAF RBD); assay type: biochemical; conditions: KRAS WT FRET data IC50, Ras-Raf disruption, with Cyclophilin A
Chain of KRAS WT (P01116 1-169 isoform P01116-2 limits assumed): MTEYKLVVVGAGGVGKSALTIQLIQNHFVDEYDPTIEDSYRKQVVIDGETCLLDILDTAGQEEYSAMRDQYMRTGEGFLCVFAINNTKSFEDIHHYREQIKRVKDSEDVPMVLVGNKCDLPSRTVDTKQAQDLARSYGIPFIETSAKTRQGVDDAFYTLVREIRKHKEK
Chain of KRAS WT (P62937 whole entry): as the sequence (P62937 whole entry) above
How it was run: as §5

[14] = target: NRAS Q61K (Homo sapiens, UniProt P01111+P62937, Q61K); assay: Ras-Raf disruption / FRET / MOA assay (BRAF RBD); assay type: biochemical
Chain of NRAS Q61K (P01111 whole entry Q61K): as the sequence (P01111 whole entry Q61R) above, with R61K counted along it
Chain of NRAS Q61K (P62937 whole entry): as the sequence (P62937 whole entry) above
How it was run: as §5

[15] = target: KRAS G12S (Homo sapiens, UniProt P01116+P62937, G12S); assay: Ras-Raf disruption / FRET / MOA assay (BRAF RBD); assay type: biochemical; conditions: KRAS G12S FRET data IC50, Ras-Raf disruption, with Cyclophilin A
Chain of KRAS G12S (P01116 1-169 isoform P01116-2 G12S limits assumed): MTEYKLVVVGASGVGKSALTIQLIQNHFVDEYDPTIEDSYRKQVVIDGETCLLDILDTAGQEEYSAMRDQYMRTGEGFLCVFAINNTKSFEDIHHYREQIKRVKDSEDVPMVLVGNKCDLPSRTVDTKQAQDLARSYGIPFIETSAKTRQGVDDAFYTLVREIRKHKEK
Chain of KRAS G12S (P62937 whole entry): as the sequence (P62937 whole entry) above
How it was run: as §5

[16] = target: KRAS G13D (Homo sapiens, UniProt P01116+P62937, G13D); assay: Ras-Raf disruption / FRET / MOA assay (BRAF RBD); assay type: biochemical; conditions: KRAS G13D FRET data IC50, Ras-Raf disruption, with Cyclophilin A
Chain of KRAS G13D (P01116 1-169 isoform P01116-2 G13D limits assumed): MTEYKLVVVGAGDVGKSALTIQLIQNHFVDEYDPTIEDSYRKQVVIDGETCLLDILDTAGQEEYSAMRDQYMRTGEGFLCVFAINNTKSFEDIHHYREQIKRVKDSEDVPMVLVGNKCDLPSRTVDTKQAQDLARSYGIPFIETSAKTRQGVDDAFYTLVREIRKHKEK
Chain of KRAS G13D (P62937 whole entry): as the sequence (P62937 whole entry) above
How it was run: as §5

[17] = target: NRAS G12C (Homo sapiens, UniProt P01111+P62937, G12C); assay: Ras-Raf disruption / FRET / MOA assay (BRAF RBD); assay type: biochemical; conditions: NRAS G12C FRET data IC50, NRAS G12C
Chain of NRAS G12C (P01111 whole entry G12C): as the sequence (P01111 whole entry Q61R) above, with G12C, R61Q counted along it
Chain of NRAS G12C (P62937 whole entry): as the sequence (P62937 whole entry) above
How it was run: as §5

[18] = target: NRAS WT (Homo sapiens, UniProt P01111+P62937); assay: Ras-Raf disruption / FRET / MOA assay (BRAF RBD); assay type: biochemical
Chain of NRAS WT (P01111 whole entry): as the sequence (P01111 whole entry Q61R) above, with R61Q counted along it
Chain of NRAS WT (P62937 whole entry): as the sequence (P62937 whole entry) above
How it was run: as §5

SMILES	IC50 [1]	IC50 [2]	IC50 [3]	pIC50 [4]	pIC50 [5]	pEC50 [6]	pIC50 [7]	pIC50 [8]	pIC50 [9]	pIC50 [10]	pIC50 [11]	pIC50 [12]	pIC50 [13]	pIC50 [14]	pIC50 [15]	pIC50 [16]	pIC50 [17]	pIC50 [18]
CO[C@H]1C[C@@H]2CC[C@@H](C)[C@@](O)(O2)C(=O)C(=O)N2CCCC[C@H]2C(=O)O[C@H]([C@H](C)C[C@@H]2CC[C@@H](OC(=O)NCCOCCOCCOCCOCCOCCOCCOCCOCCC(=O)N3CCc4cc(Cn5nc(-c6ccc7oc(N)nc7c6)c6c(N)ncnc65)ccc4C3)[C@H](OC)C2)CC(=O)[C@H](C)/C=C(\C)[C@@H](O)[C@@H](OC)C(=O)[C@H](C)C[C@H](C)/C=C/C=C/C=C/1C [Example 2]	≤ 1 nM	3.16 to 31.6 nM	≤ 3.16 nM	–	–	–	–	–	–	–	–	–	–	–	–	–	–	–
CO[C@H]1C[C@@H]2CC[C@@H](C)[C@@](O)(O2)C(=O)C(=O)N2CCCC[C@H]2C(=O)O[C@H]([C@H](C)C[C@@H]2CC[C@@H](OC(=O)NCc3cnc(N4CCN(C(=O)CCOCCN5CCN(c6ncc(C(=O)N7CCc8cc(Cn9nc(-c%10cnc%11[nH]ccc%11c%10)c%10c(N)ncnc%109)ccc8C7)cn6)CC5)CC4)nc3)[C@H](OC)C2)CC(=O)[C@H](C)/C=C(\C)[C@@H](O)[C@@H](OC)C(=O)[C@H](C)C[C@H](C)/C=C/C=C/C=C/1C [Example 52]	≤ 1 nM	–	≤ 3.16 nM	–	–	–	–	–	–	–	–	–	–	–	–	–	–	–
CO[C@H]1C[C@@H]2CC[C@@H](C)[C@@](O)(O2)C(=O)C(=O)N2CCCC[C@H]2C(=O)O[C@H]([C@H](C)C[C@@H]2CC[C@@H](OC(=O)NCc3cnc(N4CCN(c5ncc(C(=O)N6CCN(c7ncc(C(=O)N8CCc9cc(Cn%10nc(-c%11cnc%12[nH]ccc%12c%11)c%11c(N)ncnc%11%10)ccc9C8)cn7)CC6)cn5)CC4)nc3)[C@H](OC)C2)CC(=O)[C@H](C)/C=C(\C)[C@@H](O)[C@@H](OC)C(=O)[C@H](C)C[C@H](C)/C=C/C=C/C=C/1C [Example 61]	≤ 1 nM	> 1000 nM	–	–	–	–	–	–	–	–	–	–	–	–	–	–	–	–
CCn1c(-c2cccnc2[C@H](C)OC)c2c3cc(ccc31)-c1cc(O)cc(c1)C[C@H](NC(=O)[C@H](C(C)C)N(C)C(=O)CN(C)C(=O)[C@@H]1CN1CC1(C)COC1)C(=O)N1CCC[C@H](N1)C(=O)OCC(C)(C)C2 (stereo partly shown) [Example 280]	–	–	–	5.00 to 6.00	> 8.00	> 5.30	> 8.00	6.00 to 7.00	7.00 to 8.00	7.00 to 8.00	7.00 to 8.00	7.00 to 8.00	7.00 to 8.00	6.00 to 7.00	7.00 to 8.00	6.00 to 7.00	> 8.00	7.00 to 8.00
CCn1c(-c2cccnc2[C@H](C)OC)c2c3cc(ccc31)-c1cc(O)cc(c1)C[C@H](NC(=O)[C@H](C(C)C)N(C)C(=O)CN(C)C(=O)[C@@H]1N[C@H]1C1COC1)C(=O)N1CCC[C@H](N1)C(=O)OCC(C)(C)C2 [Example 283]	–	–	–	6.00 to 7.00	7.00 to 8.00	> 5.30	7.00 to 8.00	6.00 to 7.00	7.00 to 8.00	7.00 to 8.00	> 8.00	7.00 to 8.00	7.00 to 8.00	6.00 to 7.00	7.00 to 8.00	7.00 to 8.00	7.00 to 8.00	7.00 to 8.00
CCn1c(-c2cccnc2[C@H](C)OC)c2c3cc(ccc31)-c1cc(O)cc(c1)C[C@H](NC(=O)[C@H](C(C)C)N(C)C(=O)CN(C)C(=O)[C@@H]1N[C@@H]1C1CCC1)C(=O)N1CCC[C@H](N1)C(=O)OCC(C)(C)C2 [Example 287]	–	–	–	6.00 to 7.00	7.00 to 8.00	> 5.30	7.00 to 8.00	6.00 to 7.00	7.00 to 8.00	7.00 to 8.00	7.00 to 8.00	7.00 to 8.00	7.00 to 8.00	6.00 to 7.00	7.00 to 8.00	6.00 to 7.00	7.00 to 8.00	7.00 to 8.00
CCn1c(-c2cccnc2[C@H](C)OC)c2c3cc(ccc31)-c1cc(O)cc(c1)C[C@H](NC(=O)[C@H](C(C)C)N(C)C(=O)CN(C)C(=O)[C@H]1N[C@H]1C1CCC1)C(=O)N1CCC[C@H](N1)C(=O)OCC(C)(C)C2 [Example 288]	–	–	–	6.00 to 7.00	7.00 to 8.00	> 5.30	7.00 to 8.00	6.00 to 7.00	7.00 to 8.00	7.00 to 8.00	7.00 to 8.00	6.00 to 7.00	7.00 to 8.00	6.00 to 7.00	7.00 to 8.00	7.00 to 8.00	7.00 to 8.00	7.00 to 8.00
